Experimental data from US12594267B2, “Capsid inhibitors for the treatment of HIV” (Gilead Sciences, Inc., priority 2018, dated 2026).
Where two headings read alike, the source gives them in different places.

Assay: PK after subcutaneous administration of solutions in rats
Assay type: in vivo, Wistar Han rat
Details: Wistar Han, plasma, rat, SC 50 mg/kg; for AUC(0-t) / concentration at 28 d / concentration at 84 d / Cmax / concentration at 98 d / concentration at 168 d / concentration at 1 h / concentration at 3 h / concentration at 8 h / concentration at 24 h / concentration at 48 h / concentration at 72 h / concentration at 96 h / concentration at 168 h / concentration at 336 h / concentration at 504 h / concentration at 672 h / concentration at 840 h / concentration at 1008 h / concentration at 1344 h / concentration at 1680 h: sc, 50 mg/kg; for concentration at 28 d: read-out: C28d; for concentration at 84 d: read-out: C84d; for concentration at 98 d: read-out: C98d; for concentration at 1 h / concentration at 3 h / concentration at 8 h / concentration at 24 h / concentration at 48 h / concentration at 72 h / concentration at 96 h / concentration at 168 h / concentration at 336 h / concentration at 504 h / concentration at 672 h / concentration at 840 h / concentration at 1008 h / concentration at 1344 h / concentration at 1680 h: male, 300 mg/mL in 15% water/85% PEG 300
Description: Formulations containing the compound of Formula (Ia) were prepared as aqueous solutions or oral formulations and administered subcutaneously to rats, dogs, cynomolgus monkey, and/or rhesus monkey.
A solution of the compound of Formula (Ia) in 10% ethanol, 13% water, and 77% PEG 200 (400 mg/mL) was prepared. The solution was administered subcutaneously to dogs at a dose of 12 mg/kg and rats at a dose of 50 mg/kg and the pharmacokinetic (PK) profile was determined. […] In both species, plasma concentrations of the compound of Formula (Ia) were maintained above the target trough concentration of 20 nM (corresponding to an IQ of 5) for at least 84 days (12 weeks).
A solution of the free acid of the compound of Formula (Ia) in 15% water and 85% PEG 300 (300 mg/mL) was prepared. The solution was administered subcutaneously to male Wistar Han rats at a dose level of 50 mg/kg and dose volume of 0.167 mL/kg and the pharmacokinetic (PK) profile was determined.
A 300 mg/ml solution of a compound of Formula (Ia) having 9.8 w/w % water, 65.0 w/w % PEG 300, and 25.2 w/w % of the compound of Formula (Ia) was prepared. The solution was administered subcutaneously to rats at a dose of 50 mg/kg and to dogs at a dose of 12 mg/kg and the pharmacokinetic (PK) profile was determined. […] In the rat, plasma concentrations of the compound of Formula (Ia) were maintained above the target trough concentration of 20 nM for at least 168 days (24 weeks). In the dog, plasma concentrations of the compound of Formula (Ia) were maintained above the target trough concentration of 20 nM for at least 84 days (12 weeks).
(§1) A 150 mg/ml solution of a compound of Formula (Ia) having 27.92 w/w % water, 58.04 w/w % PEG 300, 13.47 w/w % of a compound of Formula (Ia), and 1.1 w/w % NaOH was prepared. The solution was administered subcutaneously to rats at a dose of 50 mg/kg and to dogs at a dose of 12 mg/kg and the pharmacokinetic (PK) profile was determined. […] In the rat, plasma concentrations of the compound of Formula (Ia) were maintained above the target trough concentration of 20 nM for at least 126 days (18 weeks). In the dog, plasma concentrations of the compound of Formula (Ia) were maintained above the target trough concentration of 20 nM for at least 56 days (8 weeks).
as §1, with “300” for “150”, “23.2” for “27.92”, “50.0” for “58.04”, “25.7” for “13.47”
A 50 mg/ml solution of a compound of Formula (Ia) having 30.07 w/w % water, 64.40 w/w % PEG 300, 4.68 w/w % of a sodium salt of the compound of Formula (Ia), and 0.85 w/w % poloxamer 188 was prepared. The solution was administered subcutaneously to rats at a dose of 50 mg/kg and to dogs at a dose of 6 mg/kg and the pharmacokinetic (PK) profile was determined. […] In the rat, plasma concentrations of the compound of Formula (Ia) were maintained above the target trough concentration of 20 nM for at least 28 days (4 weeks). In the dog, plasma concentrations of the compound of Formula (Ia) were maintained above the target trough concentration of 20 nM for at least 14 days (2 weeks).
A 75 mg/ml solution of a compound of Formula (Ia) having 29.21 w/w % water, 62.55 w/w % PEG 300, 6.97 w/w % of a sodium salt of the compound of Formula (Ia), and 1.68 w/w % poloxamer 188 was prepared. The solution was administered subcutaneously to rats at a dose of 50 mg/kg and to dogs at a dose of 6 mg/kg and the pharmacokinetic (PK) profile was determined. […]

[1] = 150 mg/mL solution (w/w %: 27.92 water, 58.04 PEG 300, 13.47 Formula (Ia), 1.1 NaOH), mean ± SD, n=3
[2] = 300 mg/mL solution (w/w %: 21.97 water, 47.05 PEG 300, 25.21 Formula (Ia), 1.08 NaOH, 4.69 poloxamer 188), mean ± SD, n=3
[3] = 400 mg/mL solution in 10% ethanol, 13% water, 77% PEG 200, mean ± SD, n=3

**Q.** Which results are given for `CC(C)(C#Cc1ccc(-c2ccc(Cl)c3c(NS(C)(=O)=O)nn(CC(F)(F)F)c23)c([C@H](Cc2cc(F)cc(F)c2)NC(=O)Cn2nc(C(F)(F)F)c3c2C(F)(F)[C@@H]2C[C@H]32)n1)S(C)(=O)=O` [Formula (Ia), N—((S)-1-(3-(4-chloro-3-(methylsulfonamido)-1-(2,2,2-trifluoroethyl)-1H-indazol-7-yl)-6-(3-methyl-3-(methylsulfonyl)but-1-yn-1-yl)pyridin-2-yl)-2-(3,5-difluorophenyl)ethyl)-2-((3bS,4aR)-5,5-difluoro-3-(trifluoromethyl)-3b,4,4a,5-tetrahydro-1H-cyclopropa[3,4]cyclopenta[1,2-c]pyrazol-1-yl)acetamide]?
**A.** Tmax [1]: 18.7 ± 4.04 days; AUC(0-t) (50 mg/mL solution (w/w %: 30.07 water, 64.40 PEG 300, 4.68 sodium salt of Formula (Ia), 0.85 poloxamer 188), mean ± SD, n=3, read-out: AUC0-7d): 156 ± 48 µM·h; concentration at 28 d (50 mg/mL solution (w/w %: 30.07 water, 64.40 PEG 300, 4.68 sodium salt of Formula (Ia), 0.85 poloxamer 188), mean ± SD, n=3): 82 ± 35 nM; concentration at 28 d (75 mg/mL solution (w/w %: 29.21 water, 62.55 PEG 300, 6.97 sodium salt of Formula (Ia), 1.68 poloxamer 188), mean ± SD, n=3): 32.5 ± 18.5 nM; AUC(0-t) (100 mg/mL solution (w/w %: 28.36 water, 60.73 PEG 300, 9.23 sodium salt of Formula (Ia), 1.68 poloxamer 188), mean ± SD, n=3, read-out: AUC0-7d): 202 ± 27 µM·h; concentration at 28 d (100 mg/mL solution (w/w %: 28.36 water, 60.73 PEG 300, 9.23 sodium salt of Formula (Ia), 1.68 poloxamer 188), mean ± SD, n=3): 415 ± 98 nM; concentration at 28 d (125 mg/mL solution (w/w %: 27.51 water, 58.92 PEG 300, 11.48 sodium salt of Formula (Ia), 2.09 poloxamer 188), mean ± SD, n=3): 27.9 ± 26.2 nM; concentration at 84 d (150 mg/mL solution (w/w %: 26.6 water, 56.97 PEG 300, 13.39 Formula (Ia), 0.57 NaOH, 2.49 poloxamer 188), mean ± SD, n=3): 53.3 ± 45.7 nM; Cmax [1]: 809 ± 21 nM; concentration at 98 d [1]: 37 ± 10.7 nM; Cmax (300 mg/mL solution (w/w %: 9.8 water, 65.0 PEG 300, 25.2 Formula (Ia)), mean ± SD, n=3): 318 ± 146 nM; concentration at 168 d (300 mg/mL solution (w/w %: 9.8 water, 65.0 PEG 300, 25.2 Formula (Ia)), mean ± SD, n=3, read-out: Cd168): 78.4 ± 13.8 nM; Cmax [2]: 915 ± 248 nM; concentration at 98 d [2]: 51.3 ± 36.5 nM; Cmax (300 mg/mL solution (w/w %: 23.2 water, 50.0 PEG 300, 25.7 Formula (Ia), 1.1 NaOH), mean ± SD, n=3): 355 ± 36 nM; concentration at 168 d (300 mg/mL solution (w/w %: 23.2 water, 50.0 PEG 300, 25.7 Formula (Ia), 1.1 NaOH), mean ± SD, n=3, read-out: C168d): 12.8 ± 3.5 nM; AUC(0-t) (400 mg/mL solution in 10% ethanol, 13% water, 77% PEG 200, mean ± SD, n=3, read-out: AUC0-140d): 569 ± 157 µM·h; concentration at 84 d [3]: 162 ± 30 nM; Cmax [3]: 283 ± 119 nM; concentration at 1 h (rat #1): 8.9 nM; concentration at 3 h (rat #1): 27 nM; concentration at 8 h (rat #1): 37 nM; concentration at 24 h (rat #1): 52.6 nM; concentration at 48 h (rat #1): 69.8 nM; concentration at 72 h (rat #1): 65.6 nM; concentration at 96 h (rat #1): 65.5 nM; concentration at 168 h (rat #1): 143 nM; concentration at 336 h (rat #1): 258 nM; concentration at 504 h (rat #1): 327 nM; concentration at 672 h (rat #1): 333 nM; concentration at 840 h (rat #1): 322 nM; concentration at 1008 h (rat #1): 300 nM; concentration at 1344 h (rat #1): 251 nM; concentration at 1680 h (rat #1): 202 nM; concentration at 1 h (rat #2): 11.4 nM; concentration at 3 h (rat #2): 17.3 nM; concentration at 8 h (rat #2): 32.8 nM; concentration at 24 h (rat #2): 49.2 nM; concentration at 48 h (rat #2): 71.1 nM; concentration at 72 h (rat #2): 66.9 nM; concentration at 96 h (rat #2): 76.8 nM; concentration at 168 h (rat #2): 132 nM; concentration at 336 h (rat #2): 273 nM; concentration at 504 h (rat #2): 267 nM; concentration at 672 h (rat #2): 299 nM; concentration at 840 h (rat #2): 316 nM; concentration at 1008 h (rat #2): 258 nM; concentration at 1344 h (rat #2): 229 nM; concentration at 1680 h (rat #2): 166 nM; concentration at 1 h (rat #3): 5.6 nM; concentration at 3 h (rat #3): 20.1 nM; concentration at 8 h (rat #3): 26.8 nM; concentration at 24 h (rat #3): 42.8 nM; concentration at 48 h (rat #3): 70.8 nM; concentration at 72 h (rat #3): 70.1 nM
